# Laboratory results reported in US8802104B2, “Parathyroid hormone receptor activation and stem and progenitor cell expansion” (The General Hospital Corporation, priority 2002, dated 2014).
# Tests used:
# [1] = parameters: species or system C57Bl/6 mice; details: mouse, in vivo
# Procedure: For PTH administration, 6-8 week old wild type C57/B male mice were used. Rat PTH (1-34) (80 μg/Kg of body weight) was injected intraperitoneally 5×/week for 4 weeks (n=5). Control mice (n=4) were injected with an equivalent volume of vehicle. At the end of the treatment period, ionized serum calcium was measured by the Ciba/Corning 634 Ca^++/pH analyzer, and, after euthanasia, the hind limbs and forelimbs were dissected and utilized for cytologic and histologic analysis.
# [2] = system: C-1498/GFP leukemia cells; assay: Leukemia outgrowth in niche-stimulated animals; assay type: in vivo, mice
# From the text: The kinetics of leukemia cell engraftment, growth, and maturation were studied in normal mice. In an effort to analyze the growth and fate of C-1498 leukemia cells transplanted into mice, the cells were transduced with a retrovirus expressing GFP(C-1498/GFP). This allows easy tracking of these cells in vivo using GFP as a marker (FIG. 9a). The acute myelogenous leukemia cell line C-1498, a spontaneously-arising acute myelomonocytic leukemia derived from C57/BL6 (H2-b) mice, is easily transplantable, can be cultured in vitro, and infected with retroviruses.
# Attention was subsequently directed to determining how activation of the stem cell niche with PTH might affect leukemia growth and maturation. To investigate the kinetics of leukemia outgrowth in “niche-stimulated” animals, animals were pre-stimulated with PTH at 80 μg/kg/day (versus saline alone) for one month. Mice were then lethally irradiated at 10 Gray, and then transplanted with 50,000 leukemia cells (GFP+) and 1×10^6 normal bone marrow cells (GFP-) (FIG. 10a). At 15 days post-transplantation, bone marrow was harvested, and, then, GFP-positive cells were scored as percentage and in absolute number. Since the absolute number of total cells was not statistically different between both groups, only the percentage figures are shown in FIG. 10b, left panel.
# In mock-treated animals, osteoblasts and osteoprogenitors, identified at PTH-receptor positive cells, were found lining the endostial surfaces of bone.
# [3] = system: HSC pool in the bone marrow; assay: HSC pool in bone marrow following chemotherapy (competitive transplant); assay type: in vivo, C57Bl/6 mice
# Procedure: (§1) Wild-type C57Bl/6 mice were treated with 5 mg of cyclophosphamide (Day 1). The day following injection of cyclophosphamide, mice received no treatment or were treated for 8 days with G-CSF (5 μg/day), 11 days with PTH (80 μg/kg/day) or a combination of G-CSF plus PTH. Mice that received a combination of both G-CSF and PTH received G-CSF treatment for 8 days and PTH treatment for 11 days. Following this treatment protocol, mice were injected with cyclophosphamide on Day 15 and treated with G-CSF, PTH or G-CSF and PTH as described above. The treatment protocol was then repeated for two subsequent cycles, as outlined in FIG. 7.
# At the end of the four-cycle treatment with cyclophosphamide and G-CSF/PTH, the bone marrow was removed from the treated mice and competitive transplants into B6.SJL mice were performed to measure the maintenance of the HSC pool in the bone marrow. This involved mixing 5×10^5 BM cells from the treated C57Bl/6 mice (CD45.2) with 2.5×10^5 BM cells from the B6.SJL mice (CD45.1). These cells were then injected into lethally irradiated B6.SJL mice. Eighteen weeks following injection of the cells, peripheral blood was collected from the mice and the relative contribution of the HSCs from the treated animals was measured by flow cytometry for the CD45.2^+ cells. To assess the ability of the HSCs to be mobilized into the peripheral circulation, one week following treatment mice were mobilized with G-CSF (5 μg/day) for 5 days. Peripheral blood (300 μl) was collected from these mice and mixed with 2.5×10^5 BM cells from a B6.SJL mouse. These cells were injected into a lethally irradiated B6.SJL host. Eighteen weeks following injection of the cells, peripheral blood was collected from the mice and the relative contribution of the HSCs from the treated animals was measured by flow cytometry for the CD45.2^+ cells.
# peripheral blood cells = assay: Complete blood count during cyclophosphamide chemotherapy cycles; assay type: in vivo, C57Bl/6 mice
# Procedure: as §1
# During the course of the four treatment cycles, peripheral blood complete blood count (CBC) analysis was performed every 2 to 3 days. This analysis involved the collection of 100 μl of peripheral blood from the tail vein of the mice, which was subsequently analyzed on a HEMAVET 850FS (Drew Scientific). To avoid any deleterious effects from repeated tail bleeds, each individual mouse was only bled once per week.
# [4] = system: primary murine stromal cell cultures; assay: Alkaline phosphatase staining of primary stromal cell cultures; assay type: cell-based, mouse; details: after 14 days, PTH vs vehicle, FIG. 5b
# Procedure: LTC-IC assays were performed using wild-type stroma and hematopoietic cells. Rat PTH (1-34) (Bachem, Torrance, Calif.) or vehicle was added to each media change either during stroma establishment and/or during culture maintenance to a final concentration of 10^−7 M. Medium was changed every three days for two weeks or until stromal layers became confluent. For alkaline phosphatase staining, primary mononuclear cells obtained as described above from wild-type and or transgenic littermates were then cultured in 24-well plates at an initial concentration of 5×10^6 cells/ml. At 10 or 14 days after seeding, medium was suctioned off, and the adherent cells were gently rinsed twice in PBS. After fixation in 10% Neutral Formalin Buffer for 30 minutes at room temperature, alkaline phosphatase activity was determined histochemically by incubation for 45 minutes at RT with a mixture of 0.1 mg/ml naphthol AS-MX phosphate (Sigma), 0.5% N,N-dimethylformamide, 0.6 mg/ml red violet LB salt (Sigma) in 0.1 M Tris-HCl (pH 8.5). Alkaline phosphatase positive cells were counted at day 10 of culture, when the cultures were subconfluent and individual cells could be identified. For inhibition of γ-secretase activity, 30 μM of γ-secretase inhibitor II (Calbiochem) dissolved in DMSO was added to the long-term culture medium and LTC-IC assays were performed as described. […]
substance,measurement,setting,value
Rat PTH (1-34),hypercalcemia by serum calcium measurements,[1],no evidence of hypercalcemia
same,"localisation of PTH-r positive cells (osteoblasts, osteoprogenitors)","[2]; 10 micron bone sections, PTH-treated animals",migrated extensively into the marrow
same,GFP-positive leukemia cells in bone sections (histology),"[2]; 10 micron bone sections, PTH-treated vs mock-treated",markedly reduced
same,number of GFP-positive leukemia initiating cells in bone marrow,"[2]; PTH 80 μg/kg/day one month pre-stimulation, 15 days post-transplantation, 3 of 3 experiments",markedly reduced
same,kinetics of normal hematopoiesis,"[2]; PTH treated animal, FIG. 11",did not change
same,HSC pool in the bone marrow following myelotoxic chemotherapy,"[3]; PTH, non-G-CSF treated animals",increased the HSC pool
same,HSC pool in the bone marrow following chemotherapy,[3]; concurrent treatment with PTH and G-CSF,retention of the HSC pool
same,"WBC and NE counts following chemotherapy, effect of adding PTH",peripheral blood cells; PTH 80 μg/kg/day 11 days added to G-CSF,not altered
same,hematological response to chemotherapy,"peripheral blood cells; mice that did not receive G-CSF, PTH or not",no differences
same,alkaline phosphatase positive (osteoblastic) cells,[4],an increase in alkaline positive cells
